Laboratory results from publication PMC11396129, “Oxindole–benzothiazole hybrids as CDK2 inhibitors and anticancer agents: design, synthesis and biological evaluation” (BMC Chemistry, 2024).

Tests used:
Format in all cases: cell-based, human
[1] = system: RXF 393; assay: NCI 60 panel growth inhibition (SRB), renal cancer; conditions: RXF 393, 10 μM
Description: (§1) Screening of cytotoxic activity against a panel of sixty human tumor cell lines The selected compounds by NCI were evaluated for their anticancer activity in a two- stage process. […] Then, the output from the single dose screen is reported as a mean graph. […] Assay protocol. […] For a typical screening experiment, cells are inoculated into 96 well microtiter plates in 100 µL at plating densities ranging from 5000 to 40,000 cells/well depending on the doubling time of individual cell lines. […] After 24 h, two plates of each cell line are fixed in situ with TCA, to represent a measurement of the cell population for each cell line at the time of drug addition (Tz). The experimental drugs are solubilized in dimethyl sulfoxide at 400-fold the desired final maximum test concentration and stored frozen prior to use. At the time of drug addition, an aliquot of frozen concentrate is thawed and diluted to twice the desired final maximum test concentration with complete medium containing 50 µg/mL gentamicin. Additional four, 10-fold or ½ log serial dilutions are made to provide a total of five drug concentrations plus control. […] For adherent cells, the assay is terminated by the addition of cold TCA. […] The supernatant is discarded, and the plates are washed five times with tap water and air dried. […] Using the seven absorbance measurements [time zero, (Tz), control growth, (C), and test growth in the presence of drug at the five concentration levels (Ti)], the percentage growth is calculated at each of the drug concentrations levels. Percentage growth inhibition is calculated as: [(Ti Tz)/(C–Tz)] x 100 for concentrations for which Ti>/=Tz and [(Ti-Tz)/Tz] x 100 for concentrations for which Ti < Tz. Three dose response parameters are calculated for each experimental agent. […] The drug concentration resulting in total growth inhibition (TGI) is calculated from Ti = Tz. […] Values are calculated for each of these three parameters if the level of activity is reached; however, if the effect is not reached or is exceeded, the value for that parameter is expressed as greater or less than the maximum or minimum concentration tested.

[2] = system: UO-31; assay: NCI 60 panel growth inhibition (SRB), renal cancer; conditions: UO-31, 10 μM
Description: as §1

[3] = system: TK-10; assay: NCI 60 panel growth inhibition (SRB), renal cancer; conditions: TK-10, 10 μM
Description: as §1

[4] = system: T-47D; assay: NCI 60 panel growth inhibition (SRB), breast cancer; conditions: 10 μM
Description: as §1

[5] = system: MCF7; assay: as above; conditions: MCF7, 10 μM
Description: as §1

[6] = system: BT-549; assay: as above; conditions: BT-549, 10 μM
Description: as §1

[7] = system: HS 578T; assay: as above; conditions: 10 μM
Description: as §1

[8] = system: MDA-MB-231/ATCC; assay: as above; conditions: 10 μM
Description: as §1

[9] = system: MDA-MB-468; assay: as above; conditions: MDA-MB-468, 10 μM
Description: as §1

[10] = system: SK-MEL-5; assay: NCI 60 panel growth inhibition (SRB), melanoma; conditions: SK-MEL-5, 10 μM
Description: as §1

[11] = system: UACC-257; assay: NCI 60 panel growth inhibition (SRB), melanoma; conditions: UACC-257, 10 μM
Description: as §1

[12] = system: SK-MEL-28; assay: NCI 60 panel growth inhibition (SRB), melanoma; conditions: SK-MEL-28, 10 μM
Description: as §1

[13] = system: M14; assay: NCI 60 panel growth inhibition (SRB), melanoma; conditions: M14, 10 μM
Description: as §1

[14] = system: MDA-MB-435; assay: NCI 60 panel growth inhibition (SRB), melanoma; conditions: MDA-MB-435, 10 μM
Description: as §1

[15] = system: LOX IMVI; assay: NCI 60 panel growth inhibition (SRB), melanoma; conditions: 10 μM
Description: as §1

[16] = system: UACC-62; assay: NCI 60 panel growth inhibition (SRB), melanoma; conditions: UACC-62, 10 μM
Description: as §1

[17] = system: DU-145; assay: NCI 60 panel growth inhibition (SRB), prostate cancer; conditions: DU-145, 10 μM
Description: as §1

[18] = system: KM12; assay: NCI 60 panel growth inhibition (SRB), colon cancer; conditions: KM12, 10 μM
Description: as §1

[19] = system: HCT-15; assay: NCI 60 panel growth inhibition (SRB), colon cancer; conditions: HCT-15, 10 μM
Description: as §1

[20] = system: HCC-2998; assay: NCI 60 panel growth inhibition (SRB), colon cancer; conditions: HCC-2998, 10 μM
Description: as §1

[21] = system: COLO 205; assay: NCI 60 panel growth inhibition (SRB), colon cancer; conditions: COLO 205, 10 μM
Description: as §1

[22] = system: HCT-116; assay: NCI 60 panel growth inhibition (SRB), colon cancer; conditions: HCT-116, 10 μM
Description: as §1

[23] = system: SW-620; assay: NCI 60 panel growth inhibition (SRB), colon cancer; conditions: SW-620, 10 μM
Description: as §1

[24] = system: NCI-H522; assay: NCI 60 panel growth inhibition (SRB), non-small cell lung cancer; conditions: NCI-H522, 10 μM
Description: as §1

[25] = system: HOP-62; assay: as above; conditions: HOP-62, 10 μM
Description: as §1

[26] = system: NCI-H322M; assay: as above; conditions: 10 μM
Description: as §1

[27] = system: A549/ATCC; assay: as above; conditions: 10 μM
Description: as §1

[28] = system: EKVX; assay: as above; conditions: 10 μM
Description: as §1

[29] = system: NCI-H460; assay: as above; conditions: NCI-H460, 10 μM
Description: as §1

[30] = system: NCI-H23; assay: as above; conditions: NCI-H23, 10 μM
Description: as §1

[31] = system: NCI-H226; assay: as above; conditions: NCI-H226, 10 μM
Description: as §1

[32] = system: MALME-3M; assay: NCI 60 panel growth inhibition (SRB), melanoma; conditions: 10 μM
Description: as §1

SMILES | GI% [1] | GI% [2] | GI% [3] | GI% [4] | GI% [5] [%] | GI% [6] | GI% [7] | GI% [8] [%] | GI% [9] [%] | GI% [10] [%] | GI% [11] | GI% [12] | GI% [13] | GI% [14] | GI% [15] [%] | GI% [16] [%] | GI% [17] | GI% [18] | GI% [19] | GI% [20] | other results
COc1cccc(-c2nc3ccccc3s2)c1OCC(=O)NN=C1C(=O)Nc2ccc(Cl)cc21 [Compound 9k, 2-(2-(Benzo[d]thiazol-2-yl)-6-methoxyphenoxy)-N′-(5-chloro-2-oxoindolin-3-ylidene)acetohydrazide] | 37.81% | 33.24% | – (GI% < 5%) | 40.62% | 35.93 | 7.55% | 8.19% | 19.83 | 27.13 | 23.55 | – (GI% < 5%) | – (GI% < 5%) | – (GI% < 5%) | – (GI% < 5%) | 13.16 | 32.61 | – (GI% < 5%) | 22.47% | 31.91% | – (GI% < 5%) | GI% [21]: – (GI% < 5%); GI% [22]: 13.42%; GI% [23]: – (GI% < 5%); GI% [24]: 28.39%; GI% [25]: 6.81%; GI% [26]: – (GI% < 5%); GI% [27]: 26.29%; GI% [28]: 66.74%; GI% [29]: 8.94%; GI% [30]: 17.71%; GI% [31]: 18.20%
O=C(COc1ccccc1-c1nc2ccccc2s1)NN=C1C(=O)Nc2ccc(Cl)cc21 [Compound 9e, 2-(2-(Benzo[d]thiazol-2-yl)phenoxy)-N′-(5-chloro-2-oxoindolin-3-ylidene)acetohydrazide] | – (GI% < 5%) | – (GI% < 5%) | – (GI% < 5%) | – (GI% < 5%) | 15.86 | – (GI% < 5%) | – (GI% < 5%) | 15.59 | 5.76 | 5.89 | – (GI% < 5%) | – (GI% < 5%) | – (GI% < 5%) | – (GI% < 5%) | 8.86 | 10.86 | – (GI% < 5%) | – (GI% < 5%) | – (GI% < 5%) | – (GI% < 5%) | GI% [32]: – (GI% < 5%); GI% [21]: – (GI% < 5%); GI% [22]: – (GI% < 5%); GI% [23]: – (GI% < 5%); GI% [24]: 11.15%; GI% [25]: – (GI% < 5%); GI% [26]: – (GI% < 5%); GI% [27]: – (GI% < 5%); GI% [28]: 53.99%; GI% [29]: – (GI% < 5%); GI% [30]: 7.05%; GI% [31]: 11.52%
COc1cccc(-c2nc3ccccc3s2)c1OCC(=O)NN=C1C(=O)Nc2ccc(Br)cc21 [Compound 9l, 2-(2-(Benzo[d]thiazol-2-yl)-6-methoxyphenoxy)-N′-(5-bromo-2-oxoindolin-3-ylidene)acetohydrazide] | 14.21% | 30.14% | – (GI% < 5%) | 41.03% | 35.92 | – (GI% < 5%) | – (GI% < 5%) | 27.34 | 19.79 | 19.70 | – (GI% < 5%) | – (GI% < 5%) | – (GI% < 5%) | 5.27% | 19.74 | 35.62 | – (GI% < 5%) | 12.55% | 21.00% | – (GI% < 5%) | GI% [32]: 6.30%; GI% [21]: – (GI% < 5%); GI% [22]: 7.62%; GI% [23]: – (GI% < 5%); GI% [24]: 25.73%; GI% [25]: 13.44%; GI% [26]: – (GI% < 5%); GI% [27]: 17.13%; GI% [28]: 66.66%; GI% [29]: 5.26%; GI% [30]: 17.03%; GI% [31]: 12.06%
